This is an account of results in patent US8575116B1, “Polyacetylenic compounds for protecting against pancreatic islet atrophy” (Academia Sinica, priority 2010, dated 2013).

For series [1], the system named is pancreatic islets of db/db mice. The series can be described thus: Pancreatic islet histology/immunohistochemistry in db/db mice. The series is classed as in vivo, mouse. The conditions noted are these: for pancreatic islet structure after long-term treatment: db/db mice 12 to 14 weeks old, cytopiloyne 0.5 and 2.5, glimepiride 2.5 mgkg^−1 day^−1 (FIG. 1F). Here is the method:
FIGS. 1A-F show the anti-diabetic effects of cytopiloyne in db/db mice during long-term treatment. (A) Chemical structure of cytopiloyne (2-β-D-glucopyranosyloxy-1-hydroxytrideca-5,7,9,11-tetrayne). (B) Four groups of 6-to-8-week-old diabetic db/db mice were tube-fed with vehicle, cytopiloyne (CP, 0.5 and 2.5 mgkg^−1 day^−1) or glimepiride (GLM, 2.5 mgkg^−1 day^−1) from 0 to 42 days post-treatment. Blood glucose (BG) levels in these mice were measured. (C) Blood insulin levels from the mice of FIG. 1B. (D) IPGTT was performed in the db/db mice of FIG. 1B on day 0, 28 and 42, and blood glucose levels were monitored for 3.5 h. (E) The percentage of glycosylated HbAlc of whole blood from the mice of FIG. 1B on day 0 and 42. (F) Pancreata of 8- and 16-week-old db/db males, which had received the same treatment as FIG. 1B for 2 (images a-h) and 10 (images i-p) weeks, were stained with hematoxylin and eosin (H&E, images a, c, e, g, i, k, m and o) or hematoxylin and anti-insulin (H&I, images b, d, f, h, j, l, n and p). The arrowheads indicate pancreatic islets. Scale bars, 200 μm. Results from 3 independent experiments are expressed as mean±SEM, and P<0.05 was considered to be statistically significant (*). The number of mice (n) is indicated in parentheses.
Pancreata from db/db males with continuous drug administration were snap frozen in OCT™ compound and stained with hematoxylin and eosin or anti-insulin antibody, followed by diaminobenzidine tetrahydrochloride development. Multiple parallel sections of each pancreas were analyzed by light microscopy.

The subject of series [2] is adipocyte protein 2 (aP2). The series can be described thus: Real-time RT-PCR of aP2 mRNA relative to GAPDH in 3T3-L1 cells. It counts as cell-based, mouse.
Series [3] can be described thus: Body weight of db/db mice during treatment. The series is classed as in vivo, mouse. As for the experimental part:
Tables 3 and 4 show the effects of cytopiloyne on body weight and food intake in db/db mice, respectively. Diabetic db/db mice at 6 to 8 weeks of age were allowed free access to food. These mice were treated with vehicle, glimepiride (GLM, 2.5 mg/kg/day), or cytopiloyne (CP, 0.5 and 2.5 mg/kg/day). Mean body weight and food intake of each group were measured from 0 to 6 weeks post-treatment. The number of mice (n) is indicated in parentheses.

Series [4] concerns human insulin promoter in HIT-T15 β-cells. Put plainly: Insulin promoter (phINS-Luc) dual luciferase assay in HIT-T15 β-cells. It counts as cell-based, rat. Here is the method:
FIGS. 4A-C show an increase in insulin mRNA and protein content by cytopiloyne in pancreatic islet cells. (A) HIT-T15 β-cells transfected with phINS-Luc and pRL-TK plasmids were incubated with vehicle (NS), glimepiride (GLM, 10 μM), high glucose (HG, 16.7 mM) or cytopiloyne at 7, 14 or 28 μM. Ten μg of cell lysates from these cells underwent to dual luciferase assays. […] (C) Rat pancreatic islet cells were treated with vehicle, glucose (3.3 mM (LG) or 16.7 mM (HG)) or cytopiloyne (CP, 7, 14 and 28 μM) in the presence of brefeldin A for 24 h. After anti-insulin antibody staining, these cells underwent FACS analysis. The percentage of insulin-positive β-cells is shown. All the results from 3 independent experiments are expressed as mean±SEM, and P<0.05 was considered to be statistically significant (*).
(A) RIN-M5F cells were grown in medium with 16.7 mM (HG) or 3.3 mM glucose (LG) in the presence of PMA. GF and cytopiloyne. The insulin level of the supernatants was determined using an ELISA kit. (B) RIN-M5F cells were transfected with 5 μg of dominant-negative PKCα or control plasmid grown in medium with 16.7 mM (HG) or 3.3 mM glucose (LG) in the presence of PMA (1 μM), GF109203X (3 μM) or cytopiloyne. The insulin level of the supernatants was determined using an ELISA kit. (C) HIT-T15 cells were transfected with phINS-Luc and pRL-TK plasmids. The cells were grown in medium with 16.7 mM (HG) or 3.3 mM glucose (LG) in the absence or presence of PMA, GF109203X and cytopiloyne. The cell lysates were subjected to dual luciferase assays. (D) HIT-T15 cells were transfected with vehicle or dominant-negative PKCα plasmid together with phINS-Luc and pRL-TK plasmids. The cells were grown in medium with 16.7 mM (HG) or 3.3 mM glucose (LG) in the absence or presence of PMA and cytopiloyne. The cell lysates were subjected to dual luciferase assays.
Plasmids phINS-Luc and pRL-TK contain a human insulin promoter (2347 bp) from phINS-DCR3 vector linked to a firefly luciferase gene and the thymidine kinase promoter linked to Renilla luciferase reporter gene, respectively. Dominant-negative PKCα, phINS-Luc and/or pRL-TK were transfected into HIT-T15 cells with lipofectamine or electroporation.

The test system of a further series is RIN-m5F cells. The series can be described thus: DAG and cholesterol generation (3H-myristic acid, TLC) in RIN-m5F cells. The series is classed as cell-based, rat. To be noted: for level of DAG: versus vehicle control, glucose 16.7 mM. As for the experimental part: FIGS. 5A-D show the effects of cytopiloyne on calcium mobilization, DAG generation and PKCa activation. (A) After Fura 2-AM loading, RIN-m5F cells were stimulated with 16.7 mM glucose (HG) and cytopiloyne at 7, 14 and 28 μM. Level of intracellular calcium, as shown by the 340/380 nm ratio, was detected using a fluorescence spectrophotometer. (B) RIN-m5F cells were pulsed with ^3H-myristic acid (5 Cim1^−1) for 16 hours. After washing, the cells were stimulated with glucose, cytopiloyne, PMA and glimepiride. Total lipids were separated on a silica thin layer plate. DAG and cholesterol were visualized with iodine vapor and identified by their standards. (C) RIN-m5F cells were incubated with vehicle (Mock), cytopiloyne (CP, 3, 7 and 14 μM), PMA (1 μM) and 16.7 mM (HG). Membrane or cytosolic proteins were subjected to Western blot with anti-PKCα and anti-Actin antibodies. (D) RIN-m5F cells were incubated with vehicle (Mock), cytopiloyne (CP 7 μM) and PMA (1 μM). After lysis, total lystaes were subjected to Western blot with anti-PKCα, anti-phospho-PKCα and anti-Actin antibodies.
RIN-m5F cells were incubated with ^3H-myristic acid ([…]) for 16 hours. After washing, the cells were treated with glucose, cytopiloyne, PMA and glimepiride. Total lipids were extracted as previously described. Radioactive DAG was separated on a silica thin layer plate with the first developer of ethylacetate: acetic acid: triethylpentane (9:2:5) and the second developer of hexane: diethylether: methanol: acetic acid (90:20:3:2). The spot of DAG was visualized with iodine vapor and identified by DAG standard.

In the case of `CC#CC#CC#CC#CCCC(CO)O[C@@H]1O[C@H](CO)[C@@H](O)[C@H](O)[C@H]1O` (stereo partly drawn) [cytopiloyne, 2-β-D-glucopyranosyloxy-1-hydroxytrideca-5,7,9,11-tetrayne], in series [1], the “pancreatic islet structure after long-term treatment” value was “much greater preservation of islet structure”. For the same compound, in series [1] (low dose 0.5 mgkg^−1 day^−1, db/db mice (FIG. 1F)), the “protection against islet atrophy” value was “protected against islet atrophy”. Moreover, in series [2] (5, 25 and 50 μM, 3T3-L1 cells), the aP2 expression result is “little effect on aP2 expression”. Moreover, the Mean body weight came to 28.2 ± 3.0 g/mouse in series [3] (0.5 mg/kg/day, week 0); 29.7 ± 3.1 g/mouse in series [3] (0.5 mg/kg/day, week 1); 32.3 ± 3.3 g/mouse in series [3] (0.5 mg/kg/day, week 2); 34.1 ± 2.9 g/mouse in series [3] (0.5 mg/kg/day, week 4); 34.8 ± 2.8 g/mouse in series [3] (0.5 mg/kg/day, week 6); 27.1 ± 2.4 g/mouse in series [3] (2.5 mg/kg/day, week 0). The Mean body weight in series [3] (2.5 mg/kg/day, week 1) was determined as 30.0 ± 2.5 g/mouse; in series [3] (2.5 mg/kg/day, week 2) it was 31.7 ± 1.5 g/mouse; in series [3] (2.5 mg/kg/day, week 4), 33.3 ± 4.1 g/mouse; in series [3] (2.5 mg/kg/day, week 6), 36.4 ± 3.7 g/mouse. The “body weight compared to control mice, in words” value in series [3] (6-week-treatment) is given as “did not significantly increase body weight”. Besides, the “insulin transcription (reporter), fold increase” value in series [4] (28 μM, HIT-T15 β-cells, 24 h) stood at 5 times. The “insulin transcription in HIT-T15 cells” value in series [4] (FIG. 6C, glucose 16.7 mM) is recorded as “stimulated insulin transcription”. Besides, the level of cholesterol result with RIN-m5F cells is “not cholesterol”. Besides, the “level of DAG” value in the series on RIN-m5F cells is given as “dose-dependently increased the level of DAG”.
Turning to `CCC1=C(C)CN(C(=O)NCCc2ccc(S(=O)(=O)NC(=O)N[C@H]3CC[C@H](C)CC3)cc2)C1=O` [glimepiride, reference compound], the figures for the “pancreatic islet structure after long-term treatment” value in series [1] and in series [1] (listed as Glimepiride) were “sporadic islets” and “failed to provide such a protection”, respectively. In addition, the “aP2 expression, times of the control” value in series [2] (mouse, 8 days, 10 μM) is recorded as 31 times. For the same compound, the Mean body weight in series [3] (2.5 mg/kg/day, week 0) is on record as 26.9 ± 1.2 g/mouse; in series [3] (2.5 mg/kg/day, week 1), 30.3 ± 2.7 g/mouse; in series [3] (2.5 mg/kg/day, week 2), 30.7 ± 3.0 g/mouse; in series [3] (2.5 mg/kg/day, week 4), 35.2 ± 1.8 g/mouse; in series [3] (2.5 mg/kg/day, week 6), 36.3 ± 2.1 g/mouse. Moreover, the “insulin transcription (reporter) compared to the control” value in series [4] (10 μM, HIT-T15 β-cells, 24 h) is listed as “no significant effect on insulin transcription”. The “level of DAG” value in the series on RIN-m5F cells is given as “significantly increased the level of DAG”.
